Assay: Solubility measurement in organic solvents
Type: physicochemical
Details: for Solubility in 3-MBA: amount (g) of compound completely dissolved in 3-methoxybutyl acetate; for Solubility in CH: amount (g) of compound completely dissolved in cyclohexanone; for Solubility in DPM: amount (g) of compound completely dissolved in dipropylene glycol methyl ether; for Solubility in EEP: amount (g) of compound completely dissolved in ethyl-3-ethoxy propionate; for Solubility in PGMEA: amount (g) of compound completely dissolved in propylene glycol methyl ether acetate
Protocol: The solubilities of Irgacure OXE-02 (Ciba Specialty Chemical) of Comparative Example 1, the compounds of Comparative Examples 2-3, and the compound of Example 1, which contains oxime ester moieties, were measured in various solvents, including propylene glycol methyl ether acetate (PGMEA), dipropylene glycol methyl ether (DPM), 3-methoxybutyl acetate (MBA), ethyl-3-ethoxy propionate (EEP) and cyclohexanone (CH). The solubility of each of the compounds was determined by measuring the amount (g) of the compound completely dissolved in the corresponding solvent.

| Structure (SMILES) | Solubility in 3-MBA [g] | Solubility in CH [g] | Solubility in DPM [g] | Solubility in EEP [g] | Solubility in PGMEA [g] |
| --- | --- | --- | --- | --- | --- |
| CCn1c2ccc(C(=O)c3ccccc3C)cc2c2cc(/C(C)=N/OC(C)=O)ccc21 [Comparative Example 1] | 10 | 40 | 5 | 10 | 12 |
| CC(=O)O/N=C(\C)c1ccc(-c2nc(C(Cl)(Cl)Cl)nc(C(Cl)(Cl)Cl)n2)cc1 [Comparative Example 2, 2,4-trichloromethyl-(4′-acetylphenylacetoxime)-6-triazine] | 5 | 25 | 3 | 6 | 7 |
| CCn1c2ccc(C(=O)c3ccc(OCC4COC(C)(C)O4)cc3)cc2c2cc(/C(CC(c3ccccc3)N(OC(C)=O)C(C)=O)=N/OC(C)=O)ccc21 (centres unmarked) [Example 1] | 13 | 60 | 7 | 15 | 20 |
| CC(=O)O/N=C/c1ccc(-c2ccc(-c3nc(C(Cl)(Cl)Cl)nc(C(Cl)(Cl)Cl)n3)cc2)cc1 [Comparative Example 3, 2,4-trichloromethyl-(4′-formylbiphenylacetoxime)-6-triazine] | 5 | 20 | 2 | 5 | 7 |
